Assay results from paper PMC13429874, “ABHD2 activity is not required for the non-genomic action of progesterone on human sperm” (Human Reproduction (Oxford, England), 2026).

Columns and labels:
[1] = target: T1, full-length human ABHD2 (ABHD2^FL) (Homo sapiens, UniProt P08910); assay: ABHD2^FL enzymatic activity assay with 7-HCA substrate; format: biochemical; conditions: Supplementary Table S2; read-out: IC50 measured in ABHD2^FL in the 7-HCA Assay
T1 construct: TEV site-eGFP-8xHis (C, cleaved yes); made in house; host or cells: SF9 insect cells (baculovirus)
T1 sequence (P08910 1-425): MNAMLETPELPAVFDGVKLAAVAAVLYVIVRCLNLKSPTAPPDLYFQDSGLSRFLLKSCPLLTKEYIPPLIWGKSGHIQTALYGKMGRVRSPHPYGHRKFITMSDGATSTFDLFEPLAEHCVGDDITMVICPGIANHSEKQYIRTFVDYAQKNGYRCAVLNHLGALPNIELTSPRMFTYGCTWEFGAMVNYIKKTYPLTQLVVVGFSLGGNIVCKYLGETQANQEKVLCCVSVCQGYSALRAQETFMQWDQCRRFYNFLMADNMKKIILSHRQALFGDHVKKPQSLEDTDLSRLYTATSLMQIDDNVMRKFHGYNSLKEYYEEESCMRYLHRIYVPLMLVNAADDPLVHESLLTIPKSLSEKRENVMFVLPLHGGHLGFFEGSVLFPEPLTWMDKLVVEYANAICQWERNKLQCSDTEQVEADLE

human sperm = assay: Sperm intracellular Ca2+ measurements (Fluo-4); format: cell-based
Experimental: Measurements of the changes in sperm intracellular Ca^2+ concentration ([Ca^2+]i) were performed on motile human sperm purified by swim-up. Semen samples were allowed to liquefy for 15–60 min at 37°C, and 0.5–1 ml liquified semen was layered beneath 4 ml human tubal fluid medium (HTF; 97.8 mM NaCl, 4.69 mM KCl, 0.2 mM MgSO4, 0.37 mM KH2PO4, 2.04 mM CaCl2, 2.78 mM glucose, 0.33 mM sodium pyruvate, 21.4 mM lactic acid, 4 mM NaHCO3, and 21 mM HEPES pH 7.35 adjusted with NaOH) in 50 ml conical tubes. Motile sperm were allowed to swim up into the HTF for 60–90 min at 37°C, collected, washed twice (700 × g, 20 min, 37°C), and resuspended in HTF containing 3 mg/ml HSA at a density of 1 × 10^7 sperm/ml. Changes of [Ca^2+]i in motile human sperm were measured as previously described ([Rennhack et al., 2018]), using a fluorescence plate-reader assay (FLUOstar Omega, BMG LABTECH) with 384-well plates. Swim-up-purified sperm were loaded with Fluo4-AM (5 μM, Thermo Fisher Scientific, Waltham, MA, USA) and Pluronic F-127 (0.05% w/v) for 20 min at 37°C. Excess dye was removed by centrifugation at 700 × g for 5 min, supernatant removal, and resuspension to 5 × 10^6 sperm/ml in HTF.
For recordings, wells of a 384-well plate were filled with 50 μl of the dye-loaded sperm suspension. Fluorescence was excited at 480 nm, and emission was recorded at 520 nm using a plate reader (Fluostar Omega, BMG Labtech). After establishing a baseline for at least 60 s, 25 µl test compound solutions were added and the fluorescence response recorded. After 4 min, 7.5 µl progesterone was added to reach a final concentration of 3 µM, and ensuing changes in fluorescence were recorded. For the analysis of compound-evoked Ca^2+ signal, basal fluorescence (F0) was determined prior to compound addition. For the determination of inhibitory effects of compounds on progesterone-evoked Ca^2+ signals, basal fluorescence (F0) was determined before progesterone addition. The CatSper inhibitor TS150 ([Schierling et al., 2023]) was used as a control. Each compound was tested in technical duplicates across ≥3 biological replicates, using sperm from at least two donors, and performed on at least two separate days.
Data analysis and graphical representation were performed with GraphPad Prism software version 10.6.1 (San Diego, CA, USA). Changes in Fluo-4 fluorescence are depicted as ΔF/F0 (%), i.e. the change in fluorescence (ΔF) relative to the mean basal fluorescence (F0) before application of buffer or compounds/ligands, to correct for intra- and inter-experimental variations in basal fluorescence among individual wells or to correct for compound-evoked changes in fluorescence. Signal amplitudes evoked in the presence of compounds were normalized to the maximal signal amplitude evoked by 3 µM progesterone in the absence of the compound (set to 1) to ease comparisons between experiments.

CC1CCCN(C(=O)c2ccccc2C(=O)c2ccccc2)C1 (stereo not drawn) [Compound 4]
IC50 [1]: 1200 nM
compound-evoked changes in [Ca2+]i (human sperm; 10 µM compound): only minuscule changes
effect on progesterone-induced Ca2+ signal (amplitude and waveform) (human sperm; compounds 10 µM, TS150 60 µM, progesterone 3 µM): similar
